Measurements: patent US5294611A, “Angiotensin II receptor blocking 2,3,6 substituted quinazolinones” (American Cyanamid Company, priority 1993, dated 1994)
Where two headings read alike, the source gives them in different places.

Tested on: Angiotensin II (AII) vasopressor response
Assay: AII Challenge: antagonism of angiotensin II vasopressor response in conscious spontaneously hypertensive rats
Type: in vivo, rat (male okamoto-Aoki SHR)
Conditions: for inhibition in vivo at 1 mg/kg / inhibition in vivo at 3 mg/kg / inhibition in vivo at 5 mg/kg: Rattus norvegicus; for inhibition in vivo at 1 mg/kg / inhibition in vivo at 3 mg/kg: iv; for inhibition in vivo at 3 mg/kg / inhibition in vivo at 5 mg/kg: read-out: Inhibition; for inhibition in vivo at 5 mg/kg: po; for Change: single SHR
How it was run: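 Conscious male SHR (16–20 weeks, ~330 g) cannulated under local procaine, blood pressure recorded via transducer. Angiotensin II (human) 0.05 and 0.1 ug/kg i.v. given before and after test compound dosed i.v., i.p. or orally; response measured as rise in systolic pressure (mmHg).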

CCCCc1nc2ccc([C@H]3[C@@H]4C(=O)CC[C@@H]4ON3C)cc2c(=O)n1Cc1ccc(-c2ccccc2-c2nnn[nH]2)cc1 (relative stereo) [Example 48]
inhibition in vivo at 1 mg/kg (0.5 h, SHR n=2, 1 mg/kg I.V., AII 0.05 mcg/kg IV, 30 min post dose): 66%
inhibition in vivo at 1 mg/kg (0.5 h, SHR n=2, 1 mg/kg I.V., AII 0.1 mcg/kg IV, 30 min post dose): 52%
inhibition in vivo at 3 mg/kg (0.5 h, SHR n=2, 3 mg/kg I.V., AII 0.05 mcg/kg IV, 30 min post dose): 93%
inhibition in vivo at 3 mg/kg (0.5 h, SHR n=2, 3 mg/kg I.V., AII 0.1 mcg/kg IV, 30 min post dose): 94%
inhibition in vivo at 1 mg/kg (1 h, SHR n=2, 1 mg/kg I.V., AII 0.05 mcg/kg IV, 60 min post dose): 55%
inhibition in vivo at 1 mg/kg (1 h, SHR n=2, 1 mg/kg I.V., AII 0.1 mcg/kg IV, 60 min post dose): 71%
inhibition in vivo at 3 mg/kg (1 h, SHR n=2, 3 mg/kg I.V., AII 0.05 mcg/kg IV, 60 min post dose): 100%
inhibition in vivo at 3 mg/kg (1 h, SHR n=2, 3 mg/kg I.V., AII 0.1 mcg/kg IV, 60 min post dose): 86%
inhibition in vivo at 1 mg/kg (2 h, SHR n=2, 1 mg/kg I.V., AII 0.05 mcg/kg IV, 120 min post dose): 49%
inhibition in vivo at 1 mg/kg (2 h, SHR n=2, 1 mg/kg I.V., AII 0.1 mcg/kg IV, 120 min post dose): 31%
inhibition in vivo at 3 mg/kg (2 h, SHR n=2, 3 mg/kg I.V., AII 0.05 mcg/kg IV, 120 min post dose): 89%
inhibition in vivo at 3 mg/kg (2 h): 82%
inhibition in vivo at 1 mg/kg (3 h, SHR n=2, 1 mg/kg I.V., AII 0.05 mcg/kg IV, 180 min post dose): 38%
inhibition in vivo at 1 mg/kg (3 h, SHR n=2, 1 mg/kg I.V., AII 0.1 mcg/kg IV, 180 min post dose): 38%
inhibition in vivo at 3 mg/kg (3 h, SHR n=2, 3 mg/kg I.V., AII 0.05 mcg/kg IV, 180 min post dose): 60%
inhibition in vivo at 3 mg/kg (3 h, SHR n=2, 3 mg/kg I.V., AII 0.1 mcg/kg IV, 180 min post dose): 47%
inhibition in vivo at 1 mg/kg (4 h, SHR n=2, 1 mg/kg I.V., AII 0.05 mcg/kg IV, 240 min post dose): 26%
inhibition in vivo at 1 mg/kg (4 h, SHR n=2, 1 mg/kg I.V., AII 0.1 mcg/kg IV, 240 min post dose): 32%
inhibition in vivo at 3 mg/kg (4 h, SHR n=2, 3 mg/kg I.V., AII 0.05 mcg/kg IV, 240 min post dose): 60%
inhibition in vivo at 3 mg/kg (4 h, SHR n=2, 3 mg/kg I.V., AII 0.1 mcg/kg IV, 240 min post dose): 47%
inhibition in vivo at 1 mg/kg (5 h, SHR n=2, 1 mg/kg I.V., AII 0.05 mcg/kg IV, 300 min post dose): 18%
inhibition in vivo at 1 mg/kg (5 h, SHR n=2, 1 mg/kg I.V., AII 0.1 mcg/kg IV, 300 min post dose): 30%
inhibition in vivo at 3 mg/kg (5 h, SHR n=2, 3 mg/kg I.V., AII 0.05 mcg/kg IV, 300 min post dose): 47%
inhibition in vivo at 3 mg/kg (5 h, SHR n=2, 3 mg/kg I.V., AII 0.1 mcg/kg IV, 300 min post dose): 35%
inhibition in vivo at 1 mg/kg ([…], SHR n=2, 1 mg/kg I.V., AII 0.05 mcg/kg IV, 90 min post dose): 40%
inhibition in vivo at 1 mg/kg ([…], SHR n=2, 1 mg/kg I.V., AII 0.1 mcg/kg IV, 90 min post dose): 52%
inhibition in vivo at 3 mg/kg ([…], SHR n=2, 3 mg/kg I.V., AII 0.05 mcg/kg IV, 90 min post dose): 87%
inhibition in vivo at 3 mg/kg ([…], SHR n=2, 3 mg/kg I.V., AII 0.1 mcg/kg IV, 90 min post dose): 76%
inhibition in vivo at 5 mg/kg (0.5 h, SHR n=2, 5 mg/kg P.O., AII 0.05 mcg/kg IV, 30 min post dose): 76%
inhibition in vivo at 5 mg/kg (0.5 h, SHR n=2, 5 mg/kg P.O., AII 0.1 mcg/kg IV, 30 min post dose): 66%
inhibition in vivo at 5 mg/kg (1 h, SHR n=2, 5 mg/kg P.O., AII 0.05 mcg/kg IV, 60 min post dose): 76%
inhibition in vivo at 5 mg/kg (1 h, SHR n=2, 5 mg/kg P.O., AII 0.1 mcg/kg IV, 60 min post dose): 74%
inhibition in vivo at 5 mg/kg (2 h, SHR n=2, 5 mg/kg P.O., AII 0.05 mcg/kg IV, 120 min post dose): 90%
inhibition in vivo at 5 mg/kg (2 h, SHR n=2, 5 mg/kg P.O., AII 0.1 mcg/kg IV, 120 min post dose): 89%
inhibition in vivo at 5 mg/kg (3 h, SHR n=2, 5 mg/kg P.O., AII 0.1 mcg/kg IV, 180 min post dose): 74%
inhibition in vivo at 5 mg/kg (3 h): 82%
inhibition in vivo at 5 mg/kg (4 h, SHR n=2, 5 mg/kg P.O., AII 0.05 mcg/kg IV, 240 min post dose): 94%
inhibition in vivo at 5 mg/kg (4 h, SHR n=2, 5 mg/kg P.O., AII 0.1 mcg/kg IV, 240 min post dose): 79%
inhibition in vivo at 5 mg/kg (5 h, SHR n=2, 5 mg/kg P.O., AII 0.05 mcg/kg IV, 300 min post dose): 93%
inhibition in vivo at 5 mg/kg (5 h, SHR n=2, 5 mg/kg P.O., AII 0.1 mcg/kg IV, 300 min post dose): 79%
inhibition in vivo at 5 mg/kg ([…], SHR n=2, 5 mg/kg P.O., AII 0.05 mcg/kg IV, 90 min post dose): 79%
inhibition in vivo at 5 mg/kg ([…], SHR n=2, 5 mg/kg P.O., AII 0.1 mcg/kg IV, 90 min post dose): 85%
Average Change (SHR n=2, 1 mg/kg I.V., AII 0.05 mcg/kg IV, 30 min post dose): 15 mmHg
Average Change (SHR n=2, 1 mg/kg I.V., AII 0.05 mcg/kg IV, 60 min post dose): 20 mmHg
Average Change (SHR n=2, 1 mg/kg I.V., AII 0.05 mcg/kg IV, 90 min post dose): 26.5 mmHg
Average Change (SHR n=2, 1 mg/kg I.V., AII 0.05 mcg/kg IV, 120 min post dose): 22.5 mmHg
Average Change (SHR n=2, 1 mg/kg I.V., AII 0.05 mcg/kg IV, 180 min post dose): 27.5 mmHg
Average Change (SHR n=2, 1 mg/kg I.V., AII 0.05 mcg/kg IV, 240 min post dose): 32.5 mmHg
Average Change (SHR n=2, 1 mg/kg I.V., AII 0.05 mcg/kg IV, 300 min post dose): 36 mmHg
Average Change (SHR n=2, 1 mg/kg I.V., AII 0.1 mcg/kg IV, 30 min post dose): 25 mmHg
Average Change (SHR n=2, 1 mg/kg I.V., AII 0.1 mcg/kg IV, 60 min post dose): 15 mmHg
Average Change (SHR n=2, 1 mg/kg I.V., AII 0.1 mcg/kg IV, 90 min post dose): 25 mmHg
Average Change (SHR n=2, 1 mg/kg I.V., AII 0.1 mcg/kg IV, 120 min post dose): 36 mmHg
Average Change (SHR n=2, 1 mg/kg I.V., AII 0.1 mcg/kg IV, 180 min post dose): 32.5 mmHg
Average Change (SHR n=2, 1 mg/kg I.V., AII 0.1 mcg/kg IV, 240 min post dose): 35.5 mmHg
Average Change (SHR n=2, 1 mg/kg I.V., AII 0.1 mcg/kg IV, 300 min post dose): 36.5 mmHg
Average Change (SHR n=2, 3 mg/kg I.V., AII 0.05 mcg/kg IV, 30 min post dose): 2.5 mmHg
Average Change (SHR n=2, 3 mg/kg I.V., AII 0.05 mcg/kg IV, 60 min post dose): 0 mmHg
Average Change (SHR n=2, 3 mg/kg I.V., AII 0.05 mcg/kg IV, 90 min post dose): 5 mmHg
Average Change (SHR n=2, 3 mg/kg I.V., AII 0.05 mcg/kg IV, 120 min post dose): 4 mmHg
Average Change (SHR n=2, 3 mg/kg I.V., AII 0.05 mcg/kg IV, 180 min post dose): 15 mmHg
Average Change (SHR n=2, 3 mg/kg I.V., AII 0.05 mcg/kg IV, 240 min post dose): 15 mmHg
Average Change (SHR n=2, 3 mg/kg I.V., AII 0.05 mcg/kg IV, 300 min post dose): 20 mmHg
Average Change (SHR n=2, 3 mg/kg I.V., AII 0.1 mcg/kg IV, 30 min post dose): 2.5 mmHg
Average Change (SHR n=2, 3 mg/kg I.V., AII 0.1 mcg/kg IV, 60 min post dose): 6 mmHg
Average Change (SHR n=2, 3 mg/kg I.V., AII 0.1 mcg/kg IV, 90 min post dose): 10 mmHg
Average Change (SHR n=2, 3 mg/kg I.V., AII 0.1 mcg/kg IV, 120 min post dose): 7.5 mmHg
Average Change (SHR n=2, 3 mg/kg I.V., AII 0.1 mcg/kg IV, 180 min post dose): 22.5 mmHg
Average Change (SHR n=2, 3 mg/kg I.V., AII 0.1 mcg/kg IV, 240 min post dose): 22.5 mmHg
Average Change (SHR n=2, 3 mg/kg I.V., AII 0.1 mcg/kg IV, 300 min post dose): 27.5 mmHg
Average Change (SHR n=2, 5 mg/kg P.O., AII 0.05 mcg/kg IV, 30 min post dose): 10 mmHg
Average Change (SHR n=2, 5 mg/kg P.O., AII 0.05 mcg/kg IV, 60 min post dose): 10 mmHg
Average Change (SHR n=2, 5 mg/kg P.O., AII 0.05 mcg/kg IV, 90 min post dose): 8.5 mmHg
Average Change (SHR n=2, 5 mg/kg P.O., AII 0.05 mcg/kg IV, 120 min post dose): 4 mmHg
Average Change (SHR n=2, 5 mg/kg P.O., AII 0.05 mcg/kg IV, 180 min post dose): 7.5 mmHg
Average Change (SHR n=2, 5 mg/kg P.O., AII 0.05 mcg/kg IV, 240 min post dose): 2.5 mmHg
Average Change (SHR n=2, 5 mg/kg P.O., AII 0.05 mcg/kg IV, 300 min post dose): 3 mmHg
Average Change (SHR n=2, 5 mg/kg P.O., AII 0.1 mcg/kg IV, 30 min post dose): 16 mmHg
Average Change (SHR n=2, 5 mg/kg P.O., AII 0.1 mcg/kg IV, 60 min post dose): 12.5 mmHg
Average Change (SHR n=2, 5 mg/kg P.O., AII 0.1 mcg/kg IV, 90 min post dose): 7 mmHg
Average Change (SHR n=2, 5 mg/kg P.O., AII 0.1 mcg/kg IV, 120 min post dose): 5 mmHg
Average Change (SHR n=2, 5 mg/kg P.O., AII 0.1 mcg/kg IV, 180 min post dose): 12.5 mmHg
Average Change (SHR n=2, 5 mg/kg P.O., AII 0.1 mcg/kg IV, 240 min post dose): 10 mmHg
Average Change (SHR n=2, 5 mg/kg P.O., AII 0.1 mcg/kg IV, 300 min post dose): 10 mmHg
Change (1 mg/kg I.V., AII 0.05 mcg/kg IV, 30 min post dose): 15 mmHg
Change (1 mg/kg I.V., AII 0.05 mcg/kg IV, 60 min post dose): 20 mmHg
Change (1 mg/kg I.V., AII 0.1 mcg/kg IV, 30 min post dose): 25 mmHg
Change (1 mg/kg I.V., AII 0.1 mcg/kg IV, 60 min post dose): 15 mmHg
Change (3 mg/kg I.V., AII 0.05 mcg/kg IV, 60 min post dose): 0 mmHg
Change (3 mg/kg I.V., AII 0.05 mcg/kg IV, 90 min post dose): 5 mmHg
Change (3 mg/kg I.V., AII 0.05 mcg/kg IV, 180 min post dose): 15 mmHg
Change (3 mg/kg I.V., AII 0.05 mcg/kg IV, 240 min post dose): 15 mmHg
Change (5 mg/kg P.O., AII 0.1 mcg/kg IV, 240 min post dose): 10 mmHg
Change (5 mg/kg P.O., AII 0.1 mcg/kg IV, 300 min post dose): 10 mmHg
